Laboratory results: patent US9352010B2, “Treatment of HIV-1 infection and AIDS” (The J. David Gladstone Institutes, priority 2011, dated 2016)
Residues, ends and D or L forms follow the SMILES beside them. *: point of attachment. Cbz = O=C(OCc1ccccc1)*; CH2F = FC*

Legend:
[1] = system: AIM2 (Absent in melanoma-2) inflammasome; conditions: by preventing ASC oligomerisation; cited from earlier work
[2] = system: human caspases; conditions: irreversible broad-spectrum; cited from earlier work
[3] = system: CI/WR (cold ischemia/warm reperfusion)-induced apoptosis and injury in the liver; conditions: in vivo; cited from earlier work
[4] = system: patients with hepatic impairment; conditions: phase I; cited from earlier work
[5] = system: patients with chronic Hepatitis C; conditions: oral or intravenous, 5 mg to 400 mg daily; cited from earlier work
[6] = system: other classes of proteases or other enzymes or receptors; conditions: cited from earlier work
[7] = target: caspase-1 (Homo sapiens, UniProt P29466); conditions: cited from earlier work
[8] = system: transient ischemia in rat; conditions: cited from earlier work
[9] = target: caspase-4 (Homo sapiens, UniProt P49662); conditions: read-out: Ki against caspase-4; cited from earlier work
[10] = system: murine models of inflammatory disease; conditions: cited from earlier work
[11] = system: human PBMCs; conditions: cited from earlier work
[12] = system: CFSE-labeled CD4 T-cells; type: cell-based, human
Description: (A) Experimental strategy to assess indirect cell killing in HIV-1-infected human lymphoid cultures. Fresh human tonsil tissue from a single donor is processed into HLAC, and then separated into two fractions. One fraction is challenged with HIV-1 and cultured for 6 days, allowing viral spread. On day 5, the uninfected fraction is treated with AZT (5 μM) and labeled with CFSE (1 μM). On day 6, the infected and CFSE-labeled (i.e., uninfected) cultures are mixed and co-cultured in the presence of AZT. […] After 6 days of co-culturing, the number of viable CFSE-positive cells is determined by flow cytometry. (B) Flow cytometry analysis of the mixed HLACs. Indirect killing is determined by gating on live CFSE-positive cells in the mixed cultures. Effector cells are either infected or uninfected cells. […] CFSE-labeled cells mixed with uninfected or infected cells were cultured in the presence of 5 μM AZT alone or together with 250 nM AMD3100. Data represent live CFSE-positive cells 6 days after co-culture with infected or uninfected effector cells. […] The absolute numbers of viable CFSE-positive CD4 and CD8 T-cells and B cells were determined. Percentages are normalized to the number of viable CFSE-positive cells co-cultured with uninfected cells in the presence of AZT, as depicted by (*). Error bars represent standard deviations of three samples from the same donor. […] See also FIG. 3.
Human tonsil or splenic tissues from routine tonsillectomies were obtained from the National Disease Research Interchange and the Cooperative Human Tissue Network and processed as previously described (Jekle et al., 2003, J Virol 77:5846-5854). In brief, tonsils or spleen were minced, passed through a 40-μm cell strainer, and cultured in 96-well U-bottomed polystyrene plates (2×10^6 cells/well) in medium (200 μl/well) consisting of RPMI 1640 supplemented with 15% heat-inactivated fetal bovine serum, 100 μg/ml gentamicin, 200 μg/ml ampicillin, 1 mM sodium pyruvate, 1% nonessential amino acids (Mediatech), 2 mM L-glutamine, and 1% fungizone (Invitrogen). All HIV-1 infections were carried out with 20-50 ng of HIV-1 p24^gag. Cells were incubated with the virus for 12-16 h, washed extensively, and supplemented with fresh medium. After day 5, infections were monitored by measuring p24gag levels in the culture medium using a FLAQ assay (Hayden et al., 2003, AIDS 17:629-631). Infected and uninfected cultures were manipulated as described for individual experiments. In “indirect killing” assays, unless otherwise stated, drugs were used at the following concentrations: 5 μM AZT; 250 nM AMD3100; 10 μg/ml T20; 100 nM Efavirenz; 1 μM Nevirapine; 30 μM Raltegravir; 60 μM 118-D-24; 5 μM Amprenavir; 5 μM Saquinavir; 5 μM Indinavir. CFSE-labeled cells were activated with PHA (5 μg/ml) and IL-2 (20 ng/ml) 2 days before mixing with effector cells.
Uninfected cells (5×10^6/ml) were labeled with 1 μM CFSE (Molecular Probes C1157), treated with 5 μM AZT for 24 h, and co-cultured with effector cells. CFSE readily diffuses into cells, where intracellular esterases cleave the acetate groups, converting it to a fluorescent, membrane-impermeable dye.

[13] = system: CD4 T cells in HIV-1 (NL4-3)-infected HLACs; assay: CD4 T-cell death in HIV-1-infected HLACs, viable CD4 T cells by flow cytometry; type: cell-based, human; conditions: FIG. 15, 4 different donors
[14] = system: lactate dehydrogenase (LDH) release; assay: LDH release from HIV-1-infected HLACs (pyroptosis); type: cell-based, human; conditions: caspase inhibitors 50 μM or 100 μM, 3 days, FIG. 16C
Description: Caspase-1 activation can lead to a highly inflammatory form of cell death called pyroptosis. To gain insight into how CD4 T cells die, it was determined whether HIV infection in CD4 T cells induce pyroptosis cell death, as measured by lactate dehydrogenase (LDH) release. HLACs were left uninfected or infected with NL4-3 in the presence of no drugs, efavirenz, AMD3100, or caspase inhibitors (50 μM or 100 μM), as indicated in FIG. 16C. After 3 days, the supernatants were assayed for the cytosolic enzyme lactate dehydrogenase (LDH) and the LDH released by dying cells was quantified.

[15] = system: CD4 T cells in HIV-1 (NL4-3)-infected HLACs; assay: CD4 T-cell death in HIV-1-infected HLACs, viable CD4 T cells by flow cytometry; type: cell-based, human; conditions: 3 days
Description: HLACs were left uninfected or infected with HIV-1 (NL4-3 clone) in the presence of AZT, efavirenz, AMD3100, or caspase inhibitors (20 μM each), as indicated in FIG. 16. After 3 days, the percentages of viable CD4 T cells in the cultures were determined by flow cytometry.
HLACs were left uninfected or infected with NL4-3 in the presence of no drugs, efavirenz, AMD3100, or caspase inhibitors (50 μM or 100 μM), as indicated in FIG. 16B. After 3 days, the percentages of viable CD4 T cells in the cultures were determined by flow cytometry.

[16] = system: IL-1β; assay: Release of 17-kDa IL-1β from isolated tonsillar CD4 T-cells (ionophore stimulus); type: cell-based, human; conditions: nigericin 10 μM
Description: For stimulating the processing and secretion of IL-1, CD4 T-cells were isolated from HLACs by positive selection and treated with 0.5 μM PMA ([…], Calbiochem Cat. #524400) for 6 hours at 37° C. PMA induces large intracellular stores of the 35 kDa pro-IL-1β. Cells were then washed with PBS and treated with 10 μM nigericin (Sigma, Cat. # N7143) overnight at 37° C. The potassium ionophore nigericin mediates an elecroneutral exchange of intracellular K^+ ions for extracellular protons, providing a second inflammatory stimulus, which results in the maturation and release of the bioactive 17 kDa IL-1β(Perregaux et al., 1992, J Immunol 149:1294-1303; Perregaux and Gabel, 1994, J Biol Chem 269:15195-15203).
Isolated tonsillar CD4 T-cells were treated overnight with nigericin (10 μM) to provide a second inflammatory stimulus, resulting in maturation and release of bioactive 17-kDa IL-1β. Supernatants from the cell cultures were subjected to SDS-PAGE and immunoblotting. 17-kDa IL-1β was released after treatment with nigericin, but not with calcium ionophore A23187 or the nonspecific cation ionophore monensin. Thus, while these cells are primed, they must receive the appropriate proinflammatory signal for pro-IL-1β processing and release. […]

caspase-1, sequence (P29466 120-297 limits assumed): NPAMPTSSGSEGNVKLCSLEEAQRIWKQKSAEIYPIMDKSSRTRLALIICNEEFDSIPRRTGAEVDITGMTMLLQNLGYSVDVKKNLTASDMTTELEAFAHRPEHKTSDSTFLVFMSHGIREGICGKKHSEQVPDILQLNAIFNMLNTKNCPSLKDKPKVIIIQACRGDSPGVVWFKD
caspase-1, sequence (P29466 317-404 limits assumed): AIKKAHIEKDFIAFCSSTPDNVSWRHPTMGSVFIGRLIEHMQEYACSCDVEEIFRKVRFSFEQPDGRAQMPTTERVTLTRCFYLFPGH
caspase-4, sequence (P49662 81-270 limits assumed): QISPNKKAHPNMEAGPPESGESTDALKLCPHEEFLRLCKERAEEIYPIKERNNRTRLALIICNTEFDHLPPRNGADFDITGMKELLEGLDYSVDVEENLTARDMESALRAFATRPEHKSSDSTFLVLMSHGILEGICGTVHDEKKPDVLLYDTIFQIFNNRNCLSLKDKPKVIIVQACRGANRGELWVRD
caspase-4, sequence (P49662 290-377 limits assumed): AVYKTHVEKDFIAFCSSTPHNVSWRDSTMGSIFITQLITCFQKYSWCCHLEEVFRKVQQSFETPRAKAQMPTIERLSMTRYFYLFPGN

CC(C)(O)c1coc(S(=O)(=O)NC(=O)Nc2c3c(cc4c2CCC4)CCC3)c1 [CRID3]
AIM2 inflammasome [1]: inhibited

C[C@H](NC(=O)C(=O)Nc1ccccc1C(C)(C)C)C(=O)N[C@@H](CC(=O)O)C(=O)COc1c(F)c(F)cc(F)c1F [IDN-6556]
caspase inhibition spectrum [2]: activity against all tested human caspases
CI/WR-induced apoptosis and injury in the liver and other organs [3]: reduced CI/WR (cold ischemia/warm reperfusion)-induced apoptosis and injury
tolerability [4]: well tolerated
efficacy (aminotransferase activity) [5]: efficacious
tolerability [5]: well tolerated
inhibition of other classes of proteases or other enzymes or receptors [6]: no inhibition

O=C[C@H](CC(=O)O)NC(=O)[C@@H]1CCCN2C(=O)CC[C@H](NC(=O)c3nccc4ccccc34)C(=O)N12 [VRT-018858]
selectivity for caspase 1 and caspase-4 against other caspases [7]: > 100 fold
Ki ([7]; read-out: Ki against caspase-1): 1.3 nM
brain damage induced by transient ischemia [8]: markedly reduced brain damage
Ki [9]: 0.4 nM

CCO[C@@H]1OC(=O)C[C@@H]1NC(=O)[C@@H]1CCCN1C(=O)[C@@H](NC(=O)c1ccc(N)c(Cl)c1)C(C)(C)C [VX-765, (S)-1-((S)-2-{[1-(4-Amino-3-chloro-phenyl)-methanoyl]-amino}-3,3-dimethyl-butanoyl)-pyrrolidine-2-carboxylic acid ((2R,3S)-2-ethoxy-5-oxo-tetrahydro-furan-3-yl)-amide]
inflammatory response [10]: reduces inflammatory response
IL-1β secretion ([11]; Stack et al.): blocked IL-1β secretion
IC50 ([11]; human PBMCs, read-out: IC50, release of LPS-induced IL-1β and IL-18): ~700 nM

COC(=O)CC[C@H](NC(=O)[C@H](CC(=O)OC)NC(=O)OCc1ccccc1)C(=O)N[C@H](C(=O)N[C@@H](CC(=O)OC)C(=O)CF)C(C)C [Z-DEVD-FMK]
reduction of cell death ([12]; 20 μM, specific inhibition of caspase-3): 50%
death of infected CD4 T-cells [13]: also inhibits death of infected CD4 T cells, however, not as efficient as caspase-1 inhibitors
LDH release from HIV-1 infected cells [14]: did not prevent the LDH release
CD4 T-cell population whose death was prevented ([15]; 20 μM, FIG. 16A): 50%
CD4 T-cell death in HIV-infected cultures ([15]; caspase inhibitors 50 μM or 100 μM, FIG. 16B): did not prevent the death

COC(=O)C[C@H](NC(=O)[C@H](C)NC(=O)[C@@H](NC(=O)OCc1ccccc1)C(C)C)C(=O)CF [Z-VAD-FMK, Z-Val-Ala-Asp(OMe)-Fluoro methyl ester] (Cbz-Val-Ala-Asp(OMe)-CH2F)
death of abortively infected CD4 T-cells with caspase inhibitors ([12]; 20 μM caspase inhibitor, AZT 5 μM): completely prevented
nigericin-induced IL-1β release after pre-treatment with caspase inhibitor [16]: blocked
death of infected CD4 T-cells [13]: inhibit the death of infected CD4 T-cells
